# Laboratory results from ChEMBL document CHEMBL1221243, “Design, synthesis, and biological evaluation of a novel series of quercetin diacylglucosides as potent anti-MRSA and anti-VRE agents” (Bioorg Med Chem Lett, 2010).
# Experiments:
# Escherichia coli = test: Antimicrobial activity against Escherichia coli K-12 after 24 hrs by microdilution assay; format: functional; settings: K-12, 24 h
# Staphylococcus aureus [1] = test: Antimicrobial activity against methicillin-resistant Staphylococcus aureus OM481 after 24 hrs by microdilution assay; format: functional; settings: OM481, 24 h
# Staphylococcus aureus [2] = test: Antimicrobial activity against methicillin-sensitive Staphylococcus aureus 209P after 24 hrs by microdilution assay; format: functional
# Staphylococcus aureus [3] = test: Antimicrobial activity against methicillin-resistant Staphylococcus aureus N315 after 24 hrs by microdilution assay; format: functional; settings: N315, 24 h
# [4] = Inhibition of Escherichia coli DNA gyraseB assessed as inhibition of pBR322 supercoiling by densitometry
# Staphylococcus aureus [5] = test: Antimicrobial activity against methicillin-resistant Staphylococcus aureus COL after 24 hrs by microdilution assay; format: functional
# Staphylococcus aureus [6] = test: Antimicrobial activity against methicillin-resistant Staphylococcus aureus OM584 after 24 hrs by microdilution assay; format: functional; settings: OM584, 24 h
# [7] = Inhibition of Escherichia coli DNA gyraseB calculated by AutoDock docking into the ATP binding site
# Enterococcus [8] = test: Antimicrobial activity against vancomycin-resistant Enterococcus FN-1 after 24 hrs by microdilution assay; format: functional; settings: FN-1, 24 h
# Enterococcus [9] = test: Antimicrobial activity against vancomycin-resistant Enterococcus NCTC 12201 after 24 hrs by microdilution assay; format: functional; settings: NCTC 12201, 24 h
# Staphylococcus aureus [10] = test: Antimicrobial activity against vancomycin intermediate-resistant Staphylococcus aureus Mu50 after 24 hrs by microdilution assay; format: functional; settings: Mu50, 24 h
SMILES,MIC (Escherichia coli),MIC (Staphylococcus aureus [1]),MIC (Staphylococcus aureus [2]),MIC (Staphylococcus aureus [3]),IC50 [4],MIC (Staphylococcus aureus [5]),MIC (Staphylococcus aureus [6]),Ki [7],MIC (Enterococcus [8]),MIC (Enterococcus [9]),MIC (Staphylococcus aureus [10])
CCn1cc(C(=O)O)c(=O)c2cc(F)c(N3CCNCC3)cc21 [NORFLOXACIN],0.25 µg/mL,64 µg/mL,0.5 µg/mL,2 µg/mL,90 nM,1 µg/mL,128 µg/mL,0.09 nM,,,
CN[C@H](CC(C)C)C(=O)N[C@H]1C(=O)N[C@@H](CC(N)=O)C(=O)N[C@H]2C(=O)N[C@H]3C(=O)N[C@H](C(=O)N[C@H](C(=O)O)c4cc(O)cc(O)c4-c4cc3ccc4O)[C@H](O)c3ccc(c(Cl)c3)Oc3cc2cc(c3O[C@@H]2O[C@H](CO)[C@@H](O)[C@H](O)[C@H]2O[C@H]2C[C@](C)(N)[C@H](O)[C@H](C)O2)Oc2ccc(cc2Cl)[C@H]1O [VANCOMYCIN],,0.25 µg/mL,0.25 µg/mL,0.25 µg/mL,,0.25 µg/mL,0.25 µg/mL,,> 128 µg/mL,> 128 µg/mL,8 µg/mL
